From PMC8686256, “DZNep promotes mouse bone defect healing via enhancing both osteogenesis and osteoclastogenesis” (Stem Cell Research & Therapy, 2021)

How the values were obtained:
Type in all cases: cell-based, mouse
primary BMSC = test: CCK-8 cytotoxicity on BMSC; details: 100 nM; 12, 48, and 96 h
EZH2 and H3K27me3 = test: Western blotting of EZH2 and H3K27me3 in BMMs; details: 25 nM; 0, 1, 3, 5 days with RANKL, vs control
Protocol: (§1) To explore the variation of the proteins on long-term activated signaling, BMMs were cultured in α-MEM containing M-CSF (30 ng/ml) and RANKL (50 ng/ml) at a density of 2 × 10^5 cells/well on 6-well plates. After 24 h, the BMMs were treated with or without 25 nM DZNep for 0, 1, 3, and 5 days, and total protein was obtained, respectively, on these specific time points. To determine the effect of DZNep on the protein of short-time activated phosphorylated, RAW264.7 cells were cultured in α-MEM at a density of 5 × 10^5 cells/well on 6-well plates. One day later, the cells were treated with the serum-free α-MEM in the presence or absence of DZNEP for 3 hand then stimulated with 50 ng/mL RANKL for 0, 10, 20, 30, and 60 min. To determine the efficiency of EZH2 shRna, BMMs were cultured in α-MEM at a density of 5 × 10^5 cells/well on 6-well plates. One day later, the cells were treated with negative control shRNA or different EZH2 shRNA for 2 days. To determine the efficiency of Foxc1 siRna, BMMs were cultured in α-MEM at a density of 5 × 10^5 cells/well on 6-well plates. […] After TBST wash for 3 times, the secondary fluorescence antibodies were incubated without light for 1 h at room temperature and the reactivity was visualized by using Odyssey V3.0 image scanning (Li-COR. Inc., Lincoln, NE, USA). […]

c-FOS and NFATc1 = test: Western blotting of c-FOS and NFATc1 in BMMs
Protocol: as §1

NF-κB signaling pathway = test: Western blotting and immunofluorescence of NF-κB signaling pathway
Protocol: as §1

Nc1nccc2c1ncn2C1C=C(CO)C(O)C1O (stereo not drawn) [DZNep, 3-Deazaneplanocin]
cytotoxicity on primary BMSC (primary BMSC): no cytotoxicity was found
EZH2 and H3K27me3 expression in BMMs (EZH2 and H3K27me3): decreased at a time manner
expression of c-FOS and NFATc1 (western blot) (c-FOS and NFATc1; 25 nM, 0, 1, 3, 5 days, vs control): further enhanced
c-FOS and NFATc1 expression (western blot), various concentrations (c-FOS and NFATc1; RANKL, 5 days): upregulated
NF-κB nuclear translocation (NF-κB signaling pathway; 25 nM pretreatment, then RANKL): enhancement of NF-κB nuclear translocation
phosphorylation of IKK, IκB, and p65 (NF-κB signaling pathway; RAW264.7, 25 nM pretreatment, RANKL for specific times): further promoted over time
